The values that follow come from patent US5744449A (priority 1996, dated 1998).

Experiment [1] deals with V. russellii venom. Particulars: in vivo.
The test system of experiment [2] is N. n. kaouthia venom. Particulars: in vivo.
Experiment [3] concerns O. s. scutellatus venom. Particulars: in vivo.
The test system of experiment [4] is C. atrox venom. Particulars: in vivo.
Experiment [5] concerns Sea snake venom. Particulars: in vivo.
The subject of experiment [6] is venoms and their lethal toxins. More on the design: species or system mice. Particulars: mouse.

Ends that are not written are not given here.

Take LKAMDPTPPLWIKTE [LTNF-15]: the “Death/Survival Group II (LTNF Immediately)” value in experiment [1], in experiment [2], in experiment [3], in experiment [4] and in experiment [5] was 0/3 in each case. Also, the “Death/Survival Group III (LTNF 1/2 hr before)” value in experiment [1], in experiment [2], in experiment [3], in experiment [4] and in experiment [5] was 0/3 each time. Moreover, the “neutralization of venoms and their lethal toxins in vivo” value in experiment [6] is “neutralized in vivo”.
